Where two headings read alike, the source gives them in different places.
What was measured:
human CB2 receptors = human CB2 receptors (Homo sapiens (Human), UniProt P34972); assay: cAMP assay, CHO cells expressing human CB2 receptors; format: cell-based
Description: (§1) CHO cells expressing human CB1 or CB2 receptors are seeded 17-24 hours prior to the experiment 50.000 cells per well in a black 96 well plate with flat clear bottom (Corning Costar #3904) in DMEM (Invitrogen No. 31331), 1×HT supplement, with 10% fetal calf serum and incubated at 5% CO2 and 37° C. in a humidified incubator. The growth medium was exchanged with Krebs Ringer Bicarbonate buffer with 1 mM IBMX and incubated at 30° C. for 30 min. Compounds were added to a final assay volume of 100 μl and incubated for 30 min at 30° C. […] The time-resolved energy transfer is measured by a TRF reader (Evotec Technologies GmbH), equipped with a ND:YAG laser as excitation source. The plate is measured twice with the excitation at 355 nm and at the emission with a delay of 100 ns and a gate of 100 ns, total exposure time 10 s at 730 (bandwidth30 nm) or 645 nm (bandwidth 75 nm), respectively. The FRET signal is calculated as follows: FRET=T730-Alexa730-P(T645-B645) with P=Ru730-B730/Ru645-B645, where T730 is the test well measured at 730 nM, T645 is the test well measured at 645 nm, B730 and B645 are the buffer controls at 730 nm and 645 nm, respectively. cAMP content is determined from the function of a standard curve spanning from 10 μM to 0.13 nM cAMP.
(§2) EC50 values were determined using Activity Base analysis (ID Business Solution, Limited).

human CB1 receptors = human CB1 receptors (Homo sapiens (Human), UniProt P21554); assay: cAMP assay, CHO cells expressing human CB1 receptors; format: cell-based
Description: as §1, §2

[1] = functional cAMP assay, CHO cells expressing human CB2, read-out: EC50 CB2 human
[2] = functional cAMP assay, CHO cells expressing human CB1, read-out: EC50 CB1 human

Sequence of human CB2 receptors (P34972 whole entry): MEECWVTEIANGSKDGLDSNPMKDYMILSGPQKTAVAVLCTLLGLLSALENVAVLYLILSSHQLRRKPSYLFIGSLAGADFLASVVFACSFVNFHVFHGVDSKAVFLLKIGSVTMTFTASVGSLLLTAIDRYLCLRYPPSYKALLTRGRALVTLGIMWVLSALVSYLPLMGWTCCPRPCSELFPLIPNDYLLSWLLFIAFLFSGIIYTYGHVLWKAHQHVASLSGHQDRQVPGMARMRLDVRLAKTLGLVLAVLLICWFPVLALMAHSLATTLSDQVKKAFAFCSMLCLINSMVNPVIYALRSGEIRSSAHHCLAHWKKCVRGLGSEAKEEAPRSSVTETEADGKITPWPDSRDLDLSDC
Sequence of human CB1 receptors (P21554 whole entry): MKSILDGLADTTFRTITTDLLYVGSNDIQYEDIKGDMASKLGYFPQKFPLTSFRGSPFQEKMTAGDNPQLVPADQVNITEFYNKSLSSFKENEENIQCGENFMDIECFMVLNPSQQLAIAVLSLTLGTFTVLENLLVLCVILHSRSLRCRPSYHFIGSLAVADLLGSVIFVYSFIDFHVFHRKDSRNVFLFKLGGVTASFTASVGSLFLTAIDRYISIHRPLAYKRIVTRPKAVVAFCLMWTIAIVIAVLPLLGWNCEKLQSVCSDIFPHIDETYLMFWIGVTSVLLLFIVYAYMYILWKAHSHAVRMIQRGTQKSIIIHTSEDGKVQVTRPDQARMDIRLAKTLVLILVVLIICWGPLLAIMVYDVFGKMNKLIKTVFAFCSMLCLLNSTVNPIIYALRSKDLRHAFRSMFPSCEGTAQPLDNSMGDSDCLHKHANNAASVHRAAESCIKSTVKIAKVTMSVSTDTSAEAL

Compound | EC50 (human CB2 receptors; [1]) [nM] | EC50 (human CB1 receptors; [2]) [nM] | EC50 (human CB2 receptors) [nM] | EC50 (human CB1 receptors) [nM]
CCC1(CC)COC(c2cc(OCC(F)(F)F)c(N3CC(F)(F)C3)cn2)=N1 [Example 30, 2-[5-(3,3-difluoroazetidin-1-yl)-4-(2,2,2-trifluoroethoxy)pyridin-2-yl]-4,4-diethyl-5H-1,3-oxazole] | 2.6 | > 10000 | – | –
FC(F)(F)COc1cc(C2=NC3(CCCCC3)CO2)ncc1C1CC1 [Example 31, 2-[5-cyclopropyl-4-(2,2,2-trifluoroethoxy)pyridin-2-yl]-3-oxa-1-azaspiro[4.5]dec-1-ene] | 19.4 | > 10000 | – | –
CC(C)(C)c1nc(-c2cc(OCC3CC3)c(N3CC(F)(F)C3)cn2)no1 [Example 32, 5-tert-butyl-3-[4-(cyclopropylmethoxy)-5-(3,3-difluoroazetidin-1-yl)pyridin-2-yl]-1,2,4-oxadiazole] | 8.6 | > 10000 | – | –
CC(C)(C)c1nc(-c2cc(OCC(F)(F)F)c(C3CC3)cn2)no1 [Example 33, 5-tert-butyl-3-[5-cyclopropyl-4-(2,2,2-trifluoroethoxy)pyridin-2-yl]-1,2,4-oxadiazole] | – | – | 6.9 | > 10000
CC(C)(C)c1nc(-c2cc(OCC3CC3)c(N3CCC34COC4)cn2)no1 [Example 35, 1-[6-(5-tert-butyl-1,2,4-oxadiazol-3-yl)-4-(cyclopropylmethoxy)pyridin-3-yl]-6-oxa-1-azaspiro[3.3]heptane] | 32.8 | > 10000 | – | –
CC(C)c1nc(-c2cc(OCC(F)(F)F)c(C3CC3)cn2)no1 [Example 36, 3-[5-cyclopropyl-4-(2,2,2-trifluoroethoxy)pyridin-2-yl]-5-propan-2-yl-1,2,4-oxadiazole] | 20.9 | > 10000 | – | –
OC1(c2nc(-c3cc(OCC(F)(F)F)c(C4CC4)cn3)no2)CC1 [Example 37, 1-[3-[5-cyclopropyl-4-(2,2,2-trifluoroethoxy)pyridin-2-yl]-1,2,4-oxadiazol-5-yl]cyclopropan-1-ol] | 236 | > 10000 | – | –
CC1(c2nc(-c3cc(OCC(F)(F)F)c(C4CC4)cn3)no2)COC1 [Example 38, 3-[5-cyclopropyl-4-(2,2,2-trifluoroethoxy)pyridin-2-yl]-5-(3-methyloxetan-3-yl)-1,2,4-oxadiazole] | 128 | > 10000 | – | –
FC(F)(F)COc1cc(-c2ncon2)ncc1C1CC1 [Example 39, 3-[5-cyclopropyl-4-(2,2,2-trifluoroethoxy)pyridin-2-yl]-1,2,4-oxadiazole] | 434 | > 10000 | – | –
CC(C)(C)c1noc(-c2cc(OCC(F)(F)F)c(C3CC3)cn2)n1 [Example 40, 3-tert-butyl-5-[5-cyclopropyl-4-(2,2,2-trifluoroethoxy)pyridin-2-yl]-1,2,4-oxadiazole] | 2.2 | > 10000 | – | –
CC1(C)CN=C(c2cc(OCC(F)(F)F)c(C3CC3)cn2)O1 [Example 41, 2-[5-cyclopropyl-4-(2,2,2-trifluoroethoxy)pyridin-2-yl]-5,5-dimethyl-4H-1,3-oxazole] | 53.9 | > 10000 | – | –
CC(C)c1noc(-c2cc(OCC(F)(F)F)c(C3CC3)cn2)n1 [Example 42, 5-[5-cyclopropyl-4-(2,2,2-trifluoroethoxy)pyridin-2-yl]-3-propan-2-yl-1,2,4-oxadiazole] | 2.3 | > 10000 | – | –
CC(C)(C)c1nc(-c2cc(OCC3CC3)c(S(C)(=O)=O)cn2)no1 [Example 43, 5-tert-butyl-3-[4-(cyclopropylmethoxy)-5-methylsulfonylpyridin-2-yl]-1,2,4-oxadiazole] | 40.9 | > 10000 | – | –
CC(C)c1nc(-c2cc(OCC(F)(F)F)c(N3CC(F)(F)C3)cn2)no1 [Example 45, 3-[5-(3,3-difluoroazetidin-1-yl)-4-(2,2,2-trifluoroethoxy)pyridin-2-yl]-5-propan-2-yl-1,2,4-oxadiazole] | 77.8 | > 10000 | – | –
OC1(c2nc(-c3cc(OCC(F)(F)F)c(N4CC(F)(F)C4)cn3)no2)CC1 [Example 46, 1-[3-[5-(3,3-difluoroazetidin-1-yl)-4-(2,2,2-trifluoroethoxy)pyridin-2-yl]-1,2,4-oxadiazol-5-yl]cyclopropan-1-ol] | 180 | > 10000 | – | –
CC1(c2nc(-c3cc(OCC(F)(F)F)c(N4CC(F)(F)C4)cn3)no2)COC1 [Example 47, 3-[5-(3,3-difluoroazetidin-1-yl)-4-(2,2,2-trifluoroethoxy)pyridin-2-yl]-5-(3-methyloxetan-3-yl)-1,2,4-oxadiazole] | 166 | > 10000 | – | –

Compound | EC50 (human CB2 receptors; [1]) [nM] | EC50 (human CB1 receptors; [2]) [nM] | EC50 (human CB2 receptors) [nM] | EC50 (human CB1 receptors) [nM]
C[C@H](Oc1cc(-c2noc(C(C)(C)C)n2)ncc1C1CC1)C(F)(F)F [Example 48, 5-tert-butyl-3-[5-cyclopropyl-4-[(2S)-1,1,1-trifluoropropan-2-yl]oxypyridin-2-yl]-1,2,4-oxadiazole] | 19 | > 10000 | – | –
C[C@@H](Oc1cc(-c2noc(C(C)(C)C)n2)ncc1C1CC1)C(F)(F)F [Example 49, 5-tert-butyl-3-[5-cyclopropyl-4-[(2R)-1,1,1-trifluoropropan-2-yl]oxypyridin-2-yl]-1,2,4-oxadiazole] | 51.5 | > 10000 | – | –
CC1(c2nc(-c3cc(OCC(F)(F)F)c(N4CC(F)(F)C4)cn3)no2)CC1 [Example 50, 3-[5-(3,3-difluoroazetidin-1-yl)-4-(2,2,2-trifluoroethoxy)pyridin-2-yl]-5-(1-methylcyclopropyl)-1,2,4-oxadiazole] | 45.8 | > 10000 | – | –
C[C@@H](Oc1cc(-c2nc(C(C)(C)C)no2)ncc1C1CC1)C(F)(F)F [Example 51, 3-tert-butyl-5-[5-cyclopropyl-4-[(2R)-1,1,1-trifluoropropan-2-yl]oxypyridin-2-yl]-1,2,4-oxadiazole] | 61.8 | > 10000 | – | –
C[C@H](Oc1cc(-c2nc(C(C)(C)C)no2)ncc1C1CC1)C(F)(F)F [Example 52, 3-tert-butyl-5-[5-cyclopropyl-4-[(2S)-1,1,1-trifluoropropan-2-yl]oxypyridin-2-yl]-1,2,4-oxadiazole] | 13.1 | > 10000 | – | –
CC(C)(C)c1nc(-c2cc(OCc3ccc(F)cc3)c(C3CC3)cn2)no1 [Example 53, 5-tert-butyl-3-[5-cyclopropyl-4-[(4-fluorophenyl)methoxy]pyridin-2-yl]-1,2,4-oxadiazole] | 1.4 | 55.1 | – | –
CC(C)(C)c1nc(-c2cc(OC3COC3)c(C3CC3)cn2)no1 [Example 54, 5-tert-butyl-3-[5-cyclopropyl-4-(oxetan-3-yloxy)pyridin-2-yl]-1,2,4-oxadiazole] | 33.1 | > 10000 | – | –
CC1(COc2cc(-c3noc(C(C)(C)C)n3)ncc2C2CC2)COC1 [Example 55, 5-tert-butyl-3-[5-cyclopropyl-4-[(3-methyloxetan-3-yl)methoxy]pyridin-2-yl]-1,2,4-oxadiazole] | 7.7 | > 10000 | – | –
CC(C)(C)c1nc(-c2cc(OCC3CCCO3)c(C3CC3)cn2)no1 (stereo not shown) [Example 56, 5-tert-butyl-3-[5-cyclopropyl-4-(oxolan-2-ylmethoxy)pyridin-2-yl]-1,2,4-oxadiazole] | 44.7 | > 10000 | – | –
CN1CCC[C@H]1COc1cc(-c2noc(C(C)(C)C)n2)ncc1C1CC1 [Example 57, 5-tert-butyl-3-[5-cyclopropyl-4-[[(2S)-1-methylpyrrolidin-2-yl]methoxy]pyridin-2-yl]-1,2,4-oxadiazole] | 13.4 | > 10000 | – | –
CC(C)(C)c1nc(-c2cc(OCC3CCO3)c(C3CC3)cn2)no1 (stereo not shown) [Example 58, 5-tert-butyl-3-[5-cyclopropyl-4-(oxetan-2-ylmethoxy)pyridin-2-yl]-1,2,4-oxadiazole] | 15.6 | > 10000 | – | –
CN1CCC(Oc2cc(-c3noc(C(C)(C)C)n3)ncc2C2CC2)C1 (stereo not shown) [Example 59, 5-tert-butyl-3-[5-cyclopropyl-4-(1-methylpyrrolidin-3-yl)oxypyridin-2-yl]-1,2,4-oxadiazole] | 48.1 | > 10000 | – | –
NC1(c2nc(-c3cc(OCC4CC4)c(C4CC4)cn3)no2)COC1 [Example 60, 3-[3-[5-cyclopropyl-4-(cyclopropylmethoxy)pyridin-2-yl]-1,2,4-oxadiazol-5-yl]oxetan-3-amine] | 448 | > 10000 | – | –
CC(C)(C)c1nc(-c2cc(Oc3ccc(F)cc3)c(C3CC3)cn2)no1 [Example 61, 5-tert-butyl-3-[5-cyclopropyl-4-(4-fluorophenoxy)pyridin-2-yl]-1,2,4-oxadiazole] | 6.2 | > 10000 | – | –
CC(C)(C)c1nc(-c2cc(OC3CCOC3)c(C3CC3)cn2)no1 (stereo not shown) [Example 62, 5-tert-butyl-3-[5-cyclopropyl-4-(oxolan-3-yloxy)pyridin-2-yl]-1,2,4-oxadiazole] | 17.8 | > 10000 | – | –
CC(C)(C)c1nc(-c2cc(OC3CCOCC3)c(C3CC3)cn2)no1 [Example 63, 5-tert-butyl-3-[5-cyclopropyl-4-(oxan-4-yloxy)pyridin-2-yl]-1,2,4-oxadiazole] | 4.3 | > 10000 | – | –

Reference: patent publication US10308659B2, “Pyridine derivatives” (Hoffmann-La Roche Inc., priority 2013, dated 2019)
